# Data reported in patent publication US20230057930A1, “COMPOSITIONS FOR ALLEVIATING THE SYMPTOMS OF LOW ANTERIOR RESECTION SYNDROME BY TOPICAL ADMINISTRATION TO THE NEORECTUM” (RepoCeuticals A/S, priority 2020, published 2023).
# What was measured:
# human subjects = conditions: cited from earlier work
# [1] = Storage stability of melatonin in aqueous solution / formulation; assay type: physicochemical; conditions: shelf life
# Description: Dimethyl sulfoxide (DMSO): DMSO ((CH3)2SO), molecular weight 78.1 g/mol, is a colorless polar aprotic solvent for both polar and nonpolar compounds and is completely miscible with water and a wide range of organic solvents. It is well known as a solvent or solubilizer for melatonin, as are also ethanol, glycerin and propylene glycol. […] On the other hand, the solubility of melatonin in water is limited to approximately 2 g/L at 20° C. […] DMSO penetrates the skin and other epithelia without damaging them and can carry other compounds dissolved in it into the underlying cells and tissues. DMSO has been used in human subjects as a topical analgesic, a vehicle for the topical application of pharmaceuticals e.g. as a component of a transdermal drug delivery systems, as an anti-inflammatory agent, and as an antioxidant. It is also used as a cryopreservative for sperm and oocytes in fertility treatments as well as for stem cells and modified lymphocytes for cellular therapies for cancer. […] While DMSO has been examined for the treatment of numerous conditions and ailments, its only use approved by the U.S. Food and Drug Administration (FDA) has been for the symptomatic treatment of interstitial cystitis, in which 50% (w/w) aqueous DMSO is instilled into the urinary bladder. […]
# rats = conditions: rat, cited from earlier work
# [2] = cited from earlier work
# patients with LARS = conditions: cited from earlier work
molecule,measurement,setting,value
"C[S+](C)[O-] [DMSO, Dimethyl sulfoxide]",adverse effects in patients,"human subjects; intravenously, doses up to 1 g/kg/day",without evidence of adverse effects
same,effect on decomposition of melatonin in aqueous solutions,[1],prevents the decomposition of melatonin
same,median 50% lethal oral dose (LD50 oral) relative to ethanol,rats; oral,twice as high as that of ethanol
glycofurol,effect on decomposition of melatonin in aqueous solutions,[1],reduces the decomposition of melatonin
"COc1ccc2[nH]cc(CCNC(C)=O)c2c1 [Melatonin, N-acetyl-5-methoxytryptamine]",adverse effects in human subjects,human subjects; gram amounts oral per day for prolonged periods,without apparent adverse effects
same,50% lethal oral dose (LD50 oral),"rats; in vivo, po",> 3200 mg/kg
same,solubility in water,[2]; 20° C.,approximately 2 g/L
same,solubility in DMSO,[2]; room temperature (20 or 25° C.),≥ 232 mg/mL
Cn1cc(C(=O)[C@@H]2CCc3nc[nH]c3C2)c2ccccc21 [ramosetron],effect on symptoms of LARS,patients with LARS,alleviated the symptoms of urgency and reduced the number of bowel movements per day
